According to patent publication US11660319B2, “Compositions comprising bacterial strains” (priority 2017, dated 2023):

Experiments:
[1] = system: SHSY5Y; test: Neurite outgrowth: microscopy and MAP2 gene expression (qPCR); type: cell-based, human
Procedure: SHSY5Y were plated in 10 cm petri dishes a density of 2×10^6 cells. After 24 h cells were treated in differentiation medium (growth medium containing 1% FBS without RA) with 10% bacteria supernatants or YCFA+, 10 uM RA, 200 uM hexanoic acid or 200 uM valproic acid, for 17 hrs. There after representative images were taken using phase contrast EVOS XL core microscope at 40×/0.65 magnification. Cells were collected, and total RNA was isolated according to RNeasy mini kit protocol (Qiagen). cDNAs were made using the high capacity cDNA reverse transcription kit (Applied Biosystems). Gene expression was measured using qPCR. GAPDH was used as internal control. Fold change was calculated according to the 2^(−ΔΔct) method.
Cells were seeded onto 8 well chamber slides (Marienfeld Laboratory Glassware) at 5×10^4 cells/well overnight and were treated with 10% bacterial supernatant for 24 hrs. For differentiation, cells were treated with 10 nM Retinoic acid for 5 days before treating with bacterial supernatant. Cells were then fixed with 4% paraformaldehyde in PBS for 20 minutes at room temperature (RT). Fixed cells were washed with PBS, and permeabilized with 1% Triton X-100 in PBS for 10 minutes. After washing with PBS, the slides were incubated with blocking buffer (4% BSA/PBS) for 1 hr at RT before adding anti-MAP2 antibody (sc-74421, Santa Cruz Biotechnology Inc) diluted in 1% BSA/PBS for 12 hr at 4° C. They were then washed twice with PBS, followed by incubation with Alexa Flour 488 conjugated anti-mouse (Molecular Probes Inc) and Alexa Flour 594 conjugated Phalloidin (ab 176757, Abcam) for 1 hr at RT. After washing 3× with PBS, the slides were mounted with Vectorshield[…] containing DAPI (Sigma, Aldrich). Slides were viewed using a Zeiss Axioscope microscope equipped with a 63×/1.2 W Korr objective and filter sets suitable for detection of the fluorochromes used. Manual exposure times for the digital acquisition of images immuno-labelled with MAP-2 were kept constant allowing comparison between different wells and treatments. Phalloidin (F-actin) and DAPI exposure times varied to suit the field of view. Randomised fields of view were acquired using a QImaging camera controlled by Image Pro Plus software. Images were saved as TIFs and opened in Adobe Photoshop CC 2015.1.2 and overlays of the MAP-2, DAPI and Phalloidion images overlaid and merged. Representative images were selected to illustrate the differences in abundance and location of the proteins examined

[2] = system: BALBc mice; test: Gene expression in hippocampus, amygdala and prefrontal cortex (qPCR); type: in vivo, mouse; conditions: amygdala
Procedure: Animals were allowed to habituate to their holding room for one week after arrival into the animal unit. They receive oral gavage (200 μL dose) of live biotherapeutics at a dose of 1×10^9 CFU for 6 consecutive days between 15:00 and 17:00. On day 7, the animals are decapitated, and tissues are harvested for experimentation.
Total RNA was extracted using the mirVana™ miRNA Isolation kit (Ambion/Llife technologies, Paisley, UK) and DNase treated (Turbo DNA-free, Ambion/life technologies) according to the manufacturers recommendations. RNA was quantified using NanoDrop™ spectrophotometer (Thermo Fisher Scientific Inc., Wilmington, Del., USA) according to the manufacturer's instructions. RNA quality was assessed using the Agilent Bioanalyzer (Agilent, Stockport, UK) according to the manufacturer's procedure and an RNA integrity number (RIN) was calculated. RNA with RIN value >7 was used for subsequent experiments. RNA was reverse transcribed to cDNA using the Applied Biosystems High Capacity cDNA kit (Applied Biosystems, Warrington, UK) according to manufacturer's instructions. Briefly, Multiscribe Reverse Transcriptase (50 U/μL) (1)(2)(1)(10) was added as part of RT master mix, incubated for 25° C. for 10 min, 37° C. for 2 h, 85° C. for 5 min and stored at 4° C. Quantitative PCR was carried out using probes (6 carboxy fluorescein-FAM) designed by Applied Biosystems to mouse specific targeted genes, while using β-actin as an endogenous control. Amplification reactions contained 1 μl cDNA, 5 μl of the 2× PCR Master mix (Roche), 900 nM of each primer and were brought to a total of 10 μl by the addition of RNase-free water. All reactions were performed in triplicate using 96-well plates on the LightCycler®480 System. Thermal cycling conditions were as recommended by the manufacturer (Roche) for 55 cycles. To check for amplicon contamination, each run contained no template controls in triplicate for each probe used. Cycle threshold (Ct) values were recorded. Data was normalized using β-actin and transformed using the 2-ΔΔCT method and presented as a fold change vs. control group.
Expression of genes for neurotransmitter receptors [serotonin receptor 1a(5-HTR1a), dopamine D1 receptor, GABA receptor subunit B1, GABAA receptor, NMDA2A (Grin2A) and NMDA2B (Grin2b) receptor], inflammatory markers [IL-1β, IL6, CD11b, TNFα and TLR4], and endocrine markers [corticosterone releasing factor (CRF), corticosterone releasing factor receptors 1 and 2 (CRFR1, CRFR2), brain-derived neurotrophin factor (BDNF), vasopressin receptor, oxytocin receptor, glucocorticoid receptor and mineralocorticoid receptor] were analysed in brain tissue from the hippocampus, amygdala and prefrontal cortex.

[3] = system: HT29-mtx epithelial, mucin-producing cell monolayers; test: mRNA expression of tight junction proteins in HT29-mtx (qRT-PCR); type: cell-based; conditions: 2 h incubation
Procedure: Total RNA was extracted using the RNeasy mini kit (Qiagen, Manchester, JUK) according to the manufacturer's instructions, and the RNA concentration determined by absorbance at 260/280 nm using a spectrophotometer (nano-Drop ND-1000; Thermo Scientific, Wilmington, Del.). For mRNA expression analysis, cDNA was prepared from total RNA using the High-Capacity cDNA reverse transcription kit (Applied Biosystems, UK) according to the manufacturer's instructions. The reverse transcription reactions were performed in a Thermo cycler (Biometra, Germany) at 25° C. for 10 min, 37° C. for 120 min, and 85° C. for 5 min, hold on at 4° C. Resulting cDNA was amplified in duplicates by the SYBR-Green PCR assay, and products were detected on QuantStudio 6 flex real-time PCR machine (Applied Biosystems, UK) using a standardised profile (initial denaturation of 95° C. for 10 minutes, followed by 40 cycles of 15 seconds of denaturation at 95° C. and 60 seconds of annealing/extension at 60/65° C., depending on the primers. A dissociation stage was added after the 40 cycles to generate a melting curve. Analysis was performed using the Applied Biosystems QuantStudio Real-Time PCR Software v1.2. The primer sequences for Actin, Villin, Occludin TJP1 and TJP2 are provided in the sequence listing.

[4] = ABTS antioxidant capacity assay of bacterial cell lysate; conditions: compared to Trolox
Procedure: Bacterial cells (10^6 or greater) were collected and centrifuged. They were resuspended in assay buffer (using three times the pellet volume). The suspension was sonicated on ice for 5 minutes and then spun down at 12,000×g for 10 minutes. The supernatant was removed and measured using the ABTS assay kit produced by Sigma Aldrich (code CS0790), in accordance with manufacturer's instructions.

## Megasphaera massiliensis [MRx0029]
[1]; undifferentiated SHSY-5Y cells, 10% bacteria supernatant, 200 uM hexanoic acid or 200 uM valproic acid, 17 hrs
  neurite outgrowth / neuron-like phenotype: induced a neuron-like phenotype
[1]; undifferentiated neuroblastoma cells, qPCR, GAPDH internal control
  MAP2 expression: significantly upregulates
[2]
  expression of CD11b: increase
  expression of GABBR1: increased
  expression of GABRA2: significantly increased
  expression of TLR4: significantly increased
  glucocorticoid receptor expression: increase
[3]
  Occludin mRNA expression: enhanced
  Tight Junction Protein 1 (TJP1) mRNA expression: enhanced
  Tight Junction Protein 2 (TJP2) mRNA expression: enhanced
  Vlillin mRNA expression: enhanced
[4]
  antioxidant capacity: approximately 2 mM
